Test results taken from PubChem BioAssay (NCI).
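48-hour exposure; five concentrations; linearly interpolated endpoints. At the TGI there is no net growth.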

Tests used:
Test in all cases: growth of human tumour cells (NCI), 48 h
[1] = tested on: 786-0 renal
[2] = tested on: A498 renal
[3] = tested on: A549 NSCLC
[4] = tested on: ACHN renal
[5] = tested on: BT-549 breast
[6] = tested on: CAKI-1 renal
[7] = tested on: CCRF-CEM leukemia
[8] = tested on: COLO 205 colon
[9] = tested on: DU-145 prostate
[10] = tested on: EKVX NSCLC
[11] = tested on: HCC-2998 colon
[12] = tested on: HCT-116 colon
[13] = tested on: HCT-15 colon
[14] = tested on: HL-60(TB) leukemia
[15] = tested on: HOP-62 NSCLC
[16] = tested on: HOP-92 NSCLC
[17] = tested on: HS 578T breast
[18] = tested on: HT29 colon
[19] = tested on: IGROV1 ovarian
[20] = tested on: K-562 leukemia
[21] = tested on: KM12 colon
[22] = tested on: M14 melanoma
[23] = tested on: MALME-3M melanoma
[24] = tested on: MCF7 breast
[25] = tested on: MDA-MB-231 breast
[26] = tested on: MDA-MB-435
[27] = tested on: MDA-N
[28] = tested on: MOLT-4 leukemia
[29] = tested on: NCI-H226 lung
[30] = tested on: NCI-H23 lung
[31] = tested on: NCI-H460 lung
[32] = tested on: NCI-H522 lung
[33] = tested on: NCI/ADR-RES ovarian
[34] = tested on: OVCAR-3 ovarian
[35] = tested on: OVCAR-4 ovarian
[36] = tested on: OVCAR-5 ovarian
[37] = tested on: OVCAR-8 ovarian
[38] = tested on: PC-3 prostate
[39] = tested on: RPMI-8226 leukemia
[40] = tested on: RXF 393 renal
[41] = tested on: SF-268 CNS
[42] = tested on: SF-295 CNS
[43] = tested on: SF-539 CNS
[44] = tested on: SK-MEL-2 melanoma
[45] = tested on: SK-MEL-28 melanoma
[46] = tested on: SK-MEL-5 melanoma
[47] = tested on: SK-OV-3 ovarian
[48] = tested on: SN12C renal
[49] = tested on: SNB-19 CNS
[50] = tested on: SNB-75 CNS
[51] = tested on: SR leukemia
[52] = tested on: SW-620 colon
[53] = tested on: T-47D breast
[54] = tested on: TK-10 renal
[55] = tested on: U251 CNS
[56] = tested on: UACC-257 melanoma
[57] = tested on: UACC-62 melanoma
[58] = tested on: UO-31 renal

With `COc1ccc(N=NC(=O)NC(CC(C)C)C(N)=O)cc1` (stereo not drawn) the TGI [1] was greater than 31.6 µM, the TGI [2] was greater than 31.6 µM and the TGI [3] was greater than 31.6 µM. For the same compound, the TGI [4] was greater than 31.6 µM, the TGI [5] was greater than 100 µM and the TGI [6] was greater than 31.6 µM. For the same compound, the TGI [7] was greater than 100 µM, the TGI [8] was 24.9 µM and the TGI [9] was greater than 100 µM. It also gave a TGI [10] greater than 100 µM, a TGI [11] greater than 31.6 µM and a TGI [12] greater than 31.6 µM. It also gave a TGI [13] greater than 31.6 µM, a TGI [14] greater than 100 µM and a TGI [15] greater than 100 µM. For the same compound, the TGI [16] was greater than 31.6 µM, the TGI [17] was greater than 100 µM and the TGI [18] was greater than 100 µM. For the same compound, the TGI [19] was greater than 100 µM, the TGI [20] was greater than 100 µM and the TGI [21] was greater than 100 µM. It also gave a TGI [22] greater than 100 µM, a TGI [23] greater than 100 µM and a TGI [24] greater than 31.6 µM. For the same compound, the TGI [25] was greater than 31.6 µM, the TGI [26] was greater than 100 µM and the TGI [27] was greater than 31.6 µM. The TGI [28] was greater than 100 µM, the TGI [29] was greater than 100 µM and the TGI [30] was greater than 100 µM. For the same compound, the TGI [31] was greater than 31.6 µM, the TGI [32] was greater than 100 µM and the TGI [33] was greater than 100 µM. The TGI [34] was greater than 100 µM, the TGI [35] was greater than 31.6 µM and the TGI [36] was greater than 100 µM. For the same compound, the TGI [37] was greater than 100 µM, the TGI [38] was greater than 100 µM and the TGI [39] was greater than 100 µM. The TGI [40] was greater than 31.6 µM, the TGI [41] was greater than 100 µM and the TGI [42] was greater than 100 µM. It also gave a TGI [43] greater than 31.6 µM, a TGI [44] greater than 100 µM and a TGI [45] greater than 100 µM. It also gave a TGI [46] greater than 100 µM, a TGI [47] greater than 100 µM and a TGI [48] greater than 31.6 µM. It also gave a TGI [49] greater than 100 µM, a TGI [50] greater than 100 µM and a TGI [51] greater than 100 µM. The TGI [52] was greater than 100 µM, the TGI [53] was greater than 100 µM and the TGI [54] was greater than 31.6 µM. It also gave a TGI [55] greater than 100 µM, a TGI [56] greater than 31.6 µM and a TGI [57] greater than 100 µM. For the same compound, the TGI [58] was greater than 65.4 µM.
